The values below come from patent US10258072B2, “Environmentally friendly gelator using medium chain triglycerides and method of use” (Research Foundation of the City University of New York, priority 2014, dated 2019).

The nature of data set [1]: Gelation test by vial inversion: gelation index and minimum gelation concentration (MGC). The format is physicochemical. Set-up: key to Gelation Index: I = Insoluble; PS = Partially Soluble. On the procedure:
(§1) Preparation and Characterization Molecular Gels. Gels were prepared by adding the solid glassy glycosides (10.0-50.0 mg gelator) to the desired solvent (1 mL). The mixture was then heated to disperse the gelator at five degrees below the boiling point of organic solvents, and at 125° C. for oils to produce a homogeneous sol. The sol was kept at this temperature for 10 minutes under constant agitation to fully disperse the gelator. The sol was then cooled to room temperature to allow for self-assembly and after a length of time (between 2-24 hours), the samples were inverted to confirm gel formation. The efficacy of gel formation was examined by determining the minimum gelation concentration (MGC) and gel-to-sol transition temperature (Tgel). Gel samples were diluted with solvent until after setting and vial inversion a gel, partial gel, or sol was formed. The gel transition temperature was determined by submersing a gel sample in an oil bath, and increasing the temperature until the gel flowed like a liquid, indicating the disassembly of the gelator structure. MGC was determined beginning from 5 wt. % samples (50 mg gelator in 1 mL solvent) or below the concentration of precipitation for gelators and diluting the samples until a sol is formed.

Data set [2] can be described thus: Gel-to-sol transition temperature (Tgel) in oil bath. Type of data set: physicochemical. The procedure: as §1, with “structure.” for “structure. MGC was determined beginning from 5 wt. % samples (50 mg gelator in 1 mL solvent) or below the concentration of precipitation for gelators and diluting the samples until a sol is formed.”

For `CCCCCCCC(=O)OC[C@H]1O[C@@H](Oc2ccc(CCC(C)=O)cc2)[C@H](O)[C@@H](O)[C@@H]1O` [RKG8, ((2R,3S,4S,5R,6S)-3,4,5-trihydroxy-6-(4-(3-oxobutyl)phenoxy)tetrahydro-2H-pyran-2-yl) methyl octanoate], the “Minimum Gelation Concentration” value came out at 0.27 wt. % in data set [1] (Coconut Oil (edible oil)); 0.25 wt. % in data set [1] (Grape seed Oil (edible oil)); 0.26 wt. % in data set [1] (Hazelnut Oil (edible oil)); 2.1 wt. % in data set [1] (Hexanes (organic solvent)); 0.25 wt. % in data set [1] (Jojoba Oil (edible oil)); 1.4 wt. % in data set [1] (Mineral Oil (organic solvent)). Besides, the “Minimum Gelation Concentration” value in data set [1] (Red Palm Oil (edible oil)) worked out at 0.34 wt. %; in data set [1] (Toluene (organic solvent)), 0.5 wt. %. Further, the “Gelation Index” value in data set [1] (Water (aqueous solvent)) was “I”. In addition, the Tgel was 106-107 °C in data set [2] (5 wt. % gel in Coconut Oil), 108-110 °C in data set [2] (5 wt. % gel in Olive Oil) and 48-50 °C in data set [2] (5 wt. % gel in Toluene).
With `CCCCCCCCCCCCCCCCCC(=O)OCC1OC(Oc2ccc(CCC(C)=O)cc2)C(O)C(O)C1O` (stereo not drawn) [RKG18, raspberry ketone glucoside stearate], the “Minimum Gelation Concentration” value was 0.28 wt. % in data set [1] (Coconut Oil (edible oil)); 0.30 wt. % in data set [1] (Grape seed Oil (edible oil)); 0.24 wt. % in data set [1] (Hazelnut Oil (edible oil)); 0.24 wt. % in data set [1] (Hexanes (organic solvent)); 0.26 wt. % in data set [1] (Jojoba Oil (edible oil)); 0.24 wt. % in data set [1] (Mineral Oil (organic solvent)). Besides, the “Minimum Gelation Concentration” value in data set [1] (Red Palm Oil (edible oil)) and in data set [1] (Toluene (organic solvent)) was 0.36 wt. % throughout. Moreover, the “Gelation Index” value in data set [1] (Water (aqueous solvent)) is recorded as “I”. Also, the Tgel in data set [2] (5 wt. % gel in Coconut Oil) is 111-112 °C.
As to `CCCCCCCCC=CCCCCCCCC(=O)OCC1OC(Oc2ccc(CCC(C)=O)cc2)C(O)C(O)C1O` (stereo not drawn) [RKGO, raspberry ketone glucoside oleate], the “Minimum Gelation Concentration” value is on record as 0.54 wt. % in data set [1] (Coconut Oil (edible oil)); 0.66 wt. % in data set [1] (Grape seed Oil (edible oil)); 0.56 wt. % in data set [1] (Hazelnut Oil (edible oil)); 0.48 wt. % in data set [1] (Jojoba Oil (edible oil)); 0.80 wt. % in data set [1] (Mineral Oil (organic solvent)); 0.72 wt. % in data set [1] (Red Palm Oil (edible oil)). Further, in data set [1] (Toluene (organic solvent)), the “Minimum Gelation Concentration” value was determined as 0.73 wt. %. In data set [1] (RKGO gels compared to saturated analogues), the MGC entry was “greater than 0.5 wt. %”.
Take `CC(=O)CCc1ccc(O[C@@H]2O[C@H](CO)[C@@H](O)[C@H](O)[C@H]2O)cc1` [Raspberry ketone glucoside, reference compound]: the “Gelation Index” value in data set [1] (Coconut Oil (edible oil)), in data set [1] (Grape seed Oil (edible oil)), in data set [1] (Hazelnut Oil (edible oil)), in data set [1] (Hexanes (organic solvent)), in data set [1] (Jojoba Oil (edible oil)) and in data set [1] (Mineral Oil (organic solvent)) was “I” in each case. In addition, the “Gelation Index” value is on record as “I” in data set [1] (Red Palm Oil (edible oil)), “PS” in data set [1] (Toluene (organic solvent)) and “PS” in data set [1] (Water (aqueous solvent)).
